# From patent publication US8178688B2, “Benzamidine derivatives, process for the preparation thereof and pharmaceutical composition comprising the same” (Dong Wha Pharmaceutical Co., Ltd., priority 2004, dated 2012)
# Where two headings read alike, the source gives them in different places.
# Key:
# [1] = system: ovariectomized ddY mouse; test: Therapeutic effect in the ovariectomized osteoporetic mouse model (trabecular bone volume of the femur); type: in vivo, ddY mice; conditions: Mus musculus, 672 h, 50 mg/kg/day oral gavage for 4 weeks from 4 weeks after ovariectomy, salts (methansulfonic acid or HCl), read-out: Changes on TBV (% changes vs vehicle control)
# Procedure: The therapeutic effects of each benzamidine derivates were evaluated on the ovariectomized ddY mouse. Benzamidine derivates were dosed from 4 weeks after operation for 4 weeks and the changes on the trabecular bone volume (TBV) of the femur were observed via histomorphometry.
# Female ddY mice (6-wk old upon receipt, SLC, Japan) were used after acclimatization for 7 days. Animals were allocated 5 per polycarbonate cage in a temperature (20-25° C.) and humidity (30-35%) controlled room. Light:dark cycle was 12 hr:12 hr and feed (Samyang, Korea) and water were supplied free to access.
# Salts of benzamidine derivates (Methansulfonic acid or HCl) were used for the test substances of this invention. Test substances are dissolved and/or suspended in injectable distilled water and administered at a dosage volume of 10 ml/kg by oral gavage. All test substances are dosed from 4 weeks after operation for 4 weeks at 50 mg/kg/day.
# To induce estrogen-deficient osteoporosis, bilateral ovaries are removed and then closed by routine methods. Operation was conduct under Ketamine hydrochloride and xylazine hydrochloride anesthesia.
# The left femur of each mouse were separated at sacrifice, and fixed in 10% neutral buffered formalin (NBF), then decalcified in decalcifying solution (24.4% formic acid, and 0.5N sodium hydroxide) for 5 days (mixed decalcifying solution was exchanges once a day for 5 days). After the dexalcification, the femur was embedded in paraffin, sectioned (3˜4 μm) and stained with hematoxylin-eosin stain.
# TBV was calculated using automated image analysis (analySIS Image Processing; SIS, Germany) under magnification of ×200 in the uniform area of trochlea epiphyseal regions (growth plate regions were excluded) of prepared histological specimens. TBV was calculated as percentage (%) levels.
# The changes of TBV compared to that of vehicle control are calculated as following Equation 1 to help the understanding of the efficacy of test substances. Percentage changes=[((TBV of a−TBV of b)/TBV of b)×100] Equation 1
# [2] = system: osteoclast differentiation; test: Inhibitory effects on osteoclast differentiation (co-culture of bone marrow cells with osteoblast, TRAP staining); type: cell-based, mice; conditions: co-culture of bone marrow cells and osteoblast, 7 days, TRAP-positive osteoclasts versus controls; for inhibition at 1 µM: Mus musculus, Osteoclast, 168 h, read-out: % inhibitory activity on osteoclastogenesis
# In short: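 Bone marrow cells from 6–8-week male ddY mice co-cultured with neonatal ICR mouse calvarial osteoblasts in α-MEM/FBS with dexamethasone (10^−7M) and vitamin D3 (10^−8M) for 7 days, compound and medium renewed every 2–3 days. TRAP-positive cells with ≥3 nuclei counted; inhibition given as percent of control.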
# [3] = system: cells; test: Cytotoxicity test (MTT); type: cell-based; conditions: 10^−6M, 72 hrs, compared with the control group
# Procedure: Cytotoxic effect of benzamidine derivatives was evaluated by the experiment described below.
# The test substance was diluted in appropriate solvent at 10^−2M concentration. […] Cells to be used in cytotoxitic test were plated on a 96-well microplate in a dose of 1×10^4 cell/100 μL per well and cultured for 72 hrs. 25 μL of MTT [3-(4,5-dimethyl-2-thiazolyl)-2,5-diphenyl-2H-tetrazolium bromide] dissolved in PBS at 2 mg/mL were added before 4 hrs of the end of culture. After reaction, the plates were centrifuged, medium was decanted and 100 μL of DMSO was added to dissolve formazan. Lastly, the absorbance of developed plates was measured at 540 nm.
Compound,change in vivo at 50 mg/kg [1] [%],inhibition at 1 µM ([2]; 1 μm) [%],inhibition at 1 µM ([2]; 1 m) [%],Survival rates of the cells ([3]; MC3T3-E1 cells) [%],Survival rates of the cells ([3]; ST2 cells) [%],% inhibitory activity on osteoclastogenesis [2] [%]
"Cc1nc(-c2ccc(OCCCCCOc3ccc(C(=N)NO)cc3)cc2)c(C2CCCC2)s1 [Example 43, N-hydroxy-4-(5-[4-(5-cyclopentyl-2-methyl-1,3-thiazol-4-yl)phenoxy]pentoxy)-benzamidine]",155,98.6,,,,
"CCS(=O)(=O)Nc1nc(-c2ccc(OCCCCCOc3ccc(C(=N)NO)cc3)cc2)c(C)s1 [Example 93, N-hydroxy-4-(5-[4-(2-ethanesulfonylamino-5-methyl-1,3-thiazol-4-yl)phenoxy]pentoxy)-benzamidine]",,,63.7,66.8,55.0,
"CCc1sc(NC)nc1-c1ccc(OCCCCCOc2ccc(C(=N)NO)cc2)cc1 [Example 96, N-hydroxy-4-(5-[4-(5-ethyl-2-methylamino-1,3-thiazol-4-yl)phenoxy]pentoxy)-benzamidine]",,,64.3,65.1,27.8,
"CCCNc1nc(-c2ccc(OCCCCCOc3ccc(C(=N)NO)cc3)cc2)c(CC)s1 [Example 98, N-hydroxy-4-(5-[4-(5-ethyl-2-propylamino-1,3-thiazol-4-yl)phenoxy]pentoxy)-benzamidine]",,,94.7,77.1,26.9,
"CCc1sc(NC(=O)c2ccncc2)nc1-c1ccc(OCCCCCOc2ccc(C(=N)NO)cc2)cc1 [Example 100, N-hydroxy-4-(5-[4-(5-ethyl-2-(4-pyridylcarbonyl)amino-1,3-thiazol-4-yl)phenoxy]pentoxy)-benzamidine]",,,63,62.8,39.1,
"CNc1nc(-c2ccc(OCCCCCOc3ccc(C(=N)NO)cc3)cc2)c(Cc2ccccc2)s1 [Example 107, N-hydroxy-4-(5-[4-(5-benzyl-2-methylamino-1,3-thiazol-4-yl)phenoxy]pentoxy)-benzamidine]",,,53.2,65.2,43.9,
"CNc1nc(-c2ccc(OCCCCCOc3ccc(C(=N)NO)cc3)cc2)c(CC2CCCC2)s1 [Example 109, N-hydroxy-4-(5-[4-(5-cyclopentylmethyl-2-methylamino-1,3-thiazol-4-yl)phenoxy]pentoxy)-benzamidine]",,,80.5,65.7,39.0,
"N=C(NO)c1ccc(OCCCCCOc2ccc(-c3nc(NC(=O)c4ccncc4)sc3CC3CCCC3)cc2)cc1 [Example 112, N-hydroxy-4-(5-[4-(5-cyclopentylmethyl-2-(4-pyridylcarbonyl)amino-1,3-thiazol-4-yl)phenoxy]pentoxy)-benzamidine]",,,76.8,86.7,63.6,
"CCS(=O)(=O)N(C)c1nc(-c2ccc(OCCCCCOc3ccc(C(=N)NO)cc3)cc2)cs1 [Example 118, N-hydroxy-4-(5-[4-(2-(ethanesulfonyl-methyl-amino)-1,3-thiazol-4-yl)phenoxy]pentoxy)-benzamidine]",,,82.9,75.3,53.2,
"CCN(CCO)c1nc(-c2ccc(OCCCCCOc3ccc(C(=N)NO)cc3)cc2)c(C)s1 [Example 121, N-hydroxy-4-(5-[4-(2-(ethyl-(2-hydroxyethyl)-amino)-5-methyl-1,3-thiazol-4-yl)phenoxy]pentoxy)-benzamidine]",,,69.4,100.0,41.4,
"Cc1sc(N(C)Cc2ccccc2)nc1-c1ccc(OCCCCCOc2ccc(C(=N)NO)cc2)cc1 [Example 125, N-hydroxy-4-(5-[4-(2-(benzyl-methyl-amino)-5-methyl-1,3-thiazol-4-yl)phenoxy]pentoxy)-benzamidine]",,,73,57.6,47.9,
"CCc1sc(N(CC)CCO)nc1-c1ccc(OCCCCCOc2ccc(C(=N)NO)cc2)cc1 [Example 130, N-hydroxy-4-(5-[4-(5-ethyl-2-(ethyl-(2-hydroxyethyl)-amino)-1,3-thiazol-4-yl)phenoxy]pentoxy)-benzamidine]",,,55.8,100.0,37.2,
"CCc1sc(N(C)Cc2ccccc2)nc1-c1ccc(OCCCCCOc2ccc(C(=N)NO)cc2)cc1 [Example 133, N-hydroxy-4-(5-[4-(2-(benzyl-methyl-amino)-5-ethyl-1,3-thiazol-4-yl)phenoxy]pentoxy)-benzamidine]",,,76.6,62.6,46.4,
"CCc1sc(N(C)Cc2cccnc2)nc1-c1ccc(OCCCCCOc2ccc(C(=N)NO)cc2)cc1 [Example 134, N-hydroxy-4-(5-[4-(5-ethyl-2-(methyl-(pyridin-3-yl-methyl)amino)-1,3-thiazol-4-yl)phenoxy]pentoxy)-benzamidine]",,,63.7,43.9,37.4,
"CCc1sc(N(CC)Cc2cccnc2)nc1-c1ccc(OCCCCCOc2ccc(C(=N)NO)cc2)cc1 [Example 136, N-hydroxy-4-(5-[4-(5-ethyl-2-(ethyl-(pyridin-3-yl-methyl)amino)-1,3-thiazol-4-yl)phenoxy]pentoxy)-benzamidine]",,,49.2,48.5,29.9,
"CCc1sc(N(CCO)CCO)nc1-c1ccc(OCCCCCOc2ccc(C(=N)NO)cc2)cc1 [Example 139, N-hydroxy-4-(5-[4-(2-(bis-(2-hydroxyethyl)amino)-5-ethyl-1,3-thiazol-4-yl)phenoxy]pentoxy)-benzamidine]",,,84.1,77.4,48.1,
"CC(C)c1sc(N(C)Cc2cccnc2)nc1-c1ccc(OCCCCCOc2ccc(C(=N)NO)cc2)cc1 [Example 141, N-hydroxy-4-(5-[4-(5-isopropyl-2-(methyl-(pyridin-3-yl-methyl)amino)-1,3-thiazol-4-yl)phenoxy]pentoxy)-benzamidine]",,,74.8,52.8,27.9,
"CCCCc1sc(N(CCC)CCC)nc1-c1ccc(OCCCCCOc2ccc(C(=N)NO)cc2)cc1 [Example 146, N-hydroxy-4-(5-[4-(5-butyl-2-dipropylamino-1,3-thiazol-4-yl)phenoxy]pentoxy)-benzamidine]",,,94.4,88.4,38.2,
"CN(Cc1cccnc1)c1nc(-c2ccc(OCCCCCOc3ccc(C(=N)NO)cc3)cc2)c(CC2CCCC2)s1 [Example 147, N-hydroxy-4-(5-[4-(5-cyclopentylmethyl-2-(methyl-(pyridin-3-yl-methyl)amino)-1,3-thiazol-4-yl)phenoxy]pentoxy)-benzamidine]",,,81.1,100.0,42.4,
"CCc1sc(N2CCCCC2)nc1-c1ccc(OCCCCCOc2ccc(C(=N)NO)cc2)cc1 [Example 166, N-hydroxy-4-(5-[4-(5-ethyl-2-piperdino-1,3-thiazol-4-yl)phenoxy]pentoxy)-benzamidine]",,,,71.2,52.4,81.2
"Cc1nc(-c2ccc(OCCCN3CCN(CCCOc4ccc(C(=N)NO)cc4)CC3)cc2)c(C(C)C)s1 [Example 181, N-hydroxy-4-(3-[4-(3-(4-(5-isopropyl-2-methyl-1,3-thiazol-4-yl)-phenoxy)-propyl)-piperazin-1-yl]-propoxy)-benzamidine]",,,54.1,99.5,36.7,
